How the values were obtained:
mice = experiment: mFST with SSRI (fluoxetine combination); format: in vivo, mouse
Protocol: mFST is an established in vivo assay for antidepressant activity (Li et al. J Pharmacol Exp Ther. 319(1):254-9, 2006.). […] J Pharmacol Exp Ther. 319(1):254-9, 2006.). Briefly, male NIH-Swiss mice (Harlan Sprague-Dawley, Indianapolis, Ind.) weighing between 25-30 g are used. Group housed animals are removed from the vivarium to the testing area in their own cages and allowed to adapt to the new environment for at least 1 hour before testing. Compounds where R^1 and R^2 are both hydrogen are dissolved in water with minimal NaOH added for dissolution and are administered i.p. […] Mice are placed in a cylinder (diameter: 10 cm; height: 25 cm) filled with 6 cm of water (22-25° C.) for 6 min. The duration of immobility during the last 4 min. of the 6 min. period of the test was scored. A mouse is recorded as immobile when floating motionless or making only those movements necessary to keep its head above water. The compounds of the invention may also be tested in combination with other compounds useful for the treatment of depressive disorders, as for example SSRI's, for their ability to enhance the antidepressant-like effects over that of either compound alone.

male NIH-Swiss mice = experiment: Forced-swim test in mice (mFST); format: in vivo, mouse
From the text: Forced-Swim Test in Mice (mFST)
mFST is an established in vivo assay for antidepressant activity (Li et al. J Pharmacol Exp Ther. 319(1):254-9, 2006.). […] The mFST was used to evaluate potential antidepressant-like activity of novel mGlu2/3 antagonists essentially as described in previously published methods (see for example, Li et al. J Pharmacol Exp Ther. 319(1):254-9, 2006.). Briefly, male NIH-Swiss mice (Harlan Sprague-Dawley, Indianapolis, Ind.) weighing between 25-30 g are used. Group housed animals are removed from the vivarium to the testing area in their own cages and allowed to adapt to the new environment for at least 1 hour before testing. Compounds where R^1 and R^2 are both hydrogen are dissolved in water with minimal NaOH added for dissolution and are administered i.p. Compounds where R^1 and/or R^2 are other than hydrogen are prepared on the day of use in 2.0-2.5% N-methyl-pyrrolidinone and then suspended in 1% HEC, 0.25% Tween 80, and 0.05% Dow antifoam, and administered orally. Mice are placed in a cylinder (diameter: 10 cm; height: 25 cm) filled with 6 cm of water (22-25° C.) for 6 min. The duration of immobility during the last 4 min. of the 6 min. period of the test was scored. A mouse is recorded as immobile when floating motionless or making only those movements necessary to keep its head above water.

male Wistar rats = experiment: Wakefulness and behavioral monitoring in rats (EEG/EMG/LMA); format: in vivo, rat; conditions: for Locomotor Activity Intensity, Mean (difference from vehicle controls): averaged over the first 7 hr post-treatment; for Cumulative Time Awake 8-19 hours, Mean (difference from vehicle controls): rebound hypersomnolence measure
Protocol: Wakefulness and Behavioral Monitoring in Rats:
Representative compounds of the present invention are tested in rats for their ability to increase the amount of time in a state of wakefulness without undesired effects such as inhibition of REM sleep, waking motor impairment (disproportionate hyper- or hypolocomotion), and/or rebound hypersomnia Test animals are continuously monitored by electro-encephalograms (EEG), electromyograms (EMG), and motion to measure cumulative time awake, rebound hypersomnia, and locomotor activity intensity during wakefulness. Methods for such studies are known in the art (see for example methods described in Edgar D M, Seidel W F. Modafinil induces wakefulness without intensifying motor activity or subsequent rebound hypersomnolence in the rat. J Pharmacology & Experimental Therapeutics 1997; 283: 757-769; van Gelder R N, Edgar D M, Dement W C. Real-time automated sleep scoring: validation of a microcomputer-based system for mice. Sleep 1991, 14: 48-55; and Gross B A, Walsh C M, Turakhia A A, Booth V, Mashour G A, Poe G R. Open-source logic-based automated sleep scoring software using electrophysiological recordings in rats. J Neurosci Methods. 2009; 184(1):10-8.) Studies are conducted as follows:
Adult, male Wistar rats (approximately 270-300 g at time of surgery) are surgically fitted for chronic recording of EEG, EMG, body temperature, and motion as follows: Rats are surgically prepared with a cranial implant consisting of four stainless steel screws for EEG recording (two frontal [3.9 mm anterior from bregma, and ±2.0 mm mediolaterally] and two occipital [6.4 mm posterior from bregma, ±5.5 mm mediolaterally]), and with two Teflon-coated stainless steel wires for EMG recording (positioned under the nuchal trapezoid muscles). All leads are soldered to a miniature connector (Microtech, Boothwyn, Pa.) prior to surgery. The implant assembly is affixed to the skull by the combination of the stainless steel EEG recording screws, cyanoacrylate applied between the implant connector and skull, and dental acrylic. Body temperature and locomotor activity is monitored via a miniature transmitter (Minimitter PDT4000G, Philips Respironics, Bend, Oreg.) surgically placed into the abdomen. At least 3 weeks are allowed for recovery.
Each rat is housed individually within a microisolator cage modified with an inserted polycarbonate filter-top riser to allow more vertical headroom. A flexible cable that minimally restricts movement is connected at one end to a commutator affixed to the cage top and at the other end to the animal's cranial implant. Each cage is located within separate, ventilated compartments of a stainless steel sleep-wake recording chamber. Food and water are available ad libitum and the ambient temperature is maintained at about 23±1° C. A 24-hr light-dark cycle (LD 12:12) using fluorescent light is maintained throughout the study. Relative humidity averages approximately 50%. Animals are undisturbed for at least 30 hrs before and after each treatment.
Compounds where R^1 and R^2 are both hydrogen are dissolved in water with minimal NaOH added for dissolution and are administered i.p in a volume of 1.0 mL per kg body weight. Compounds where R^1 and/or R^2 are other than hydrogen are administer p.o. in a volume of 2 mL per kg body weight in one of two alternative vehicles: i) 2.5% N-methyl-2-pyrrolidinone in hydroxyethylcellulose; or ii) 10% acacia with 0.05% Dow Corning® Antifoam in water. The vehicle or one of the compound dose levels is administered pseudo-randomly such that no rat receives the same treatment twice, and no rat receives more than two of the 8 treatments in any one study. Each rat is removed from its cage for about a minute to be weighed and treated. At least 6 days “washout” period precede and follow each treatment.
Sleep and wakefulness discrimination may be automated (e.g., Van Gelder et al. 1991; Edgar et al. 1997, Winrow et al., 2010; Gross et al., 2009). […]

mGlu2+/+ mice = experiment: mFST in mGlu2+/+ littermate mice; format: in vivo, mouse; conditions: 30 mg/kg, po, 120 min prior
[1] = Brain and plasma levels of active di-acid in the fluoxetine combination study; format: in vivo, mouse; conditions: combination with fluoxetine versus alone
From the text: The compounds of the invention may also be tested in combination with other compounds useful for the treatment of depressive disorders, as for example SSRI's, for their ability to enhance the antidepressant-like effects over that of either compound alone.

## CC(C)OC(=O)OCOC(=O)[C@H]1[C@@H]2[C@H](O)[C@@H](OCc3ccc(Cl)c(Cl)c3)[C@@](N)(C(=O)OCOC(=O)OC(C)C)[C@H]12.Cl [Example 10, Bis({[(1-methylethoxy)carbonyl]oxy}methyl) (1S,2R,3S,4S,5R,6R)-2-amino-3-[(3,4-dichlorobenzyl)oxy]-4-hydroxybicyclo[3.1.0]hexane-2,6-dicarboxylate hydrochloride]
mice; Example 10 17 mg/kg p.o. with fluoxetine 10 mg/kg i.p.
  antidepressant-like effect in combination with fluoxetine: significantly increase the antidepressant-like effect over that of either compound alone
mice; Example 10 17 mg/kg p.o., fluoxetine 10 mg/kg i.p., alone or combined
  Maximal Decrease (1 − compound/control) * 100%: 24.5%
mice; Example 10 17 mg/kg p.o., fluoxetine 10 mg/kg i.p., alone or combined, vehicle 174
  Immobilization Time: 105 s
Male NIH-Swiss mice; Mus musculus, po, immobility in last 4 min of 6 min
  ED60: 22.1 mg/kg
Male NIH-Swiss mice; p.o., immobility time
  Maximal Decrease (1 − compound/control) * 100%: 50.5%
Male Wistar rats; 10 mg/kg PO
  Cumulative Time Awake first 7 hours, Mean (difference from vehicle controls): 20.4 min
  Locomotor Activity Intensity, Mean (difference from vehicle controls): 2.7 counts of LMA per minute of EEG-defined wakefulness
  Cumulative Time Awake 8-19 hours, Mean (difference from vehicle controls): 15.2 min
Male Wistar rats; 30 mg/kg PO
  Cumulative Time Awake first 7 hours, Mean (difference from vehicle controls): 48.8 min
  Locomotor Activity Intensity, Mean (difference from vehicle controls): 0.5 counts of LMA per minute of EEG-defined wakefulness
  Cumulative Time Awake 8-19 hours, Mean (difference from vehicle controls): 25.6 min
Male Wistar rats; 60 mg/kg PO
  Cumulative Time Awake first 7 hours, Mean (difference from vehicle controls): 64.7 min
  Locomotor Activity Intensity, Mean (difference from vehicle controls): 4.2 counts of LMA per minute of EEG-defined wakefulness
  Cumulative Time Awake 8-19 hours, Mean (difference from vehicle controls): 34.7 min
mGlu2+/+ mice
  immobility time: decrease immobility time
[1]
  brain and plasma levels of the active di-acid moiety: no increase in exposure levels

— patent US9056844B2, “4-substituted-3-benzyloxy-bicyclo[3.1.0]hexane compounds as mGluR 2/3 antagonists” (Eli Lilly and Company, priority 2010, dated 2015)
